From US20170049843A1, “Hepatocyte Growth Factor Mimics as Therapeutic Agents” (WASHINGTON STATE UNIVERSITY, priority 2011, published 2017)
Where a SMILES comes first, the peptide text is derived from it. [ ]: non-standard residue; d: D form. The star is where a group is joined. Nle = CCCC[C@H](N)C(=O)O; Hexanoyl = CCCCCC(=O)*; Ahx = NCCCCCC(=O)O

Columns and labels:
Type in all cases: cell-based, rat
[1] = test system: hippocampal neurons; assay: Immunocytochemistry: correlation of spines to synaptic markers (VGLUT1, Synapsin, PSD-95); conditions: 5 days; for Number of spines/50 μm (PSD-95 staining experiment) / Number of spines/50 μm (Synapsin staining experiment) / Number of spines/50 μm (VGLUT1 staining experiment): 10^−12 M, N=25
Protocol: (§1) Transfected neurons were treated, fixed and stained. Briefly, cells were permeablized with 0.1% Triton X-100 detergent (Bio-Rad; Hercules, Calif.) for 10 minutes. An 8% bovine serum albumin (Intergen Company; Burlington, Mass.) in PBS was used to prevent non-specific binding for one hour at R.T.; Primary antibody incubations were at a 1:2500 dilution (see below) in 1% BSA in PBS at 4° C. overnight. Secondary antibody, 1:3000 Alexafluor 488 goat-anti-mouse (Invitrogen: Carlsbad, Calif.) was applied for two hours at room temperature. Coverslips were mounted with ProLong Gold anti-fade reagent (Invitrogen; Carlsbad, Calif.) and all washes were done with PBS. Imaging and analysis were performed as described above. For presynaptic excitatory transmission the VGLUT1 (Synaptic Systems, Goettingen, Germany) marker (Balschun, Moechars et al.) was employed and for general presynaptic transmission synapsinl (Synaptic Systems, Goettingen, Germany) (Ferreira and Rapoport 2002) was applied. A postsynaptic function was established by PSD-95 (Milipore, Billerica, Mass.) (El-Husseini, Schnell et al. 2000). In each instance the total number of spines was counted for the treatment groups, control, Nle1-AngIV and Dihexa, to ensure an active phenotype. The total number of actin enriched spines adjacent to VGLUT1 or Synapsin were counted and converted to a percentage as the percent correlation of treatment-induced spines to presynaptic markers is a strong indicator of ability to transmit excitatory signals.
as §1, with “fixed and stained as previously described in Chapter two. Briefly, cells” for “fixed and stained. Briefly, cells”, “enriched spines (red) adjacent to” for “enriched spines adjacent to”

[2] = test system: CA1 hippocampal neurons; assay: Spinogenesis in organotypic hippocampal slice cultures (CA1 neurons); conditions: for spines per 50 μm dendrite length, CA1 neurons: 10-12 M, 2 day treatment, control 7; for mean spine numbers per 50 μm dendrite length, CA1 neurons: 10^−12 M Dihexa or 10 ng/ml HGF, 48 hours, control 6.1
Protocol: (§2) Hippocampi from P4 Sprague Dawley rats were cultured as previously described (Wayman, Impey et al. 2006). Briefly, 400 μm slices were cultured on (Milipore, Billerica, Mass.) for 3 days after which they were biolistically transfected with tomato fluorescent protein (TFP) using a Helios Gen Gun (BioRad, Hercules, Calif.), according to the manufacturer's protocol, to visualize dendritic arbors. Following a 24 hour recovery period slices were stimulated with vehicle (H2O), 1 pM Nle1-AngIV or Dihexa for 2 days. Slices were fixed and mounted. Hippocampal CA1 neuronal processes were imaged and measured as described above.
as §2, with “Gene” for “Gen”, “with” for “with vehicle (H2O),”

[3] = test system: hippocampal neurons; assay: Whole-cell recordings of mEPSCs in dissociated hippocampal neurons; design: mean mEPSC frequency: unit not given beside the values; conditions: 5 days
[4] = 10^−12 M Dihexa or 10 ng/ml HGF, control 3.55±0.60
[5] = Hinge 10^−12 M, HGF 10 ng/ml, Dihexa 10^−12 M, alone or combined, vehicle 5.31±0.35

CCCC[C@H](N)C(=O)N[C@@H](Cc1ccc(O)cc1)C(=O)N[C@H](C(=O)N[C@@H](Cc1c[nH]cn1)C(=O)N1CCC[C@H]1C(=O)N[C@@H](Cc1ccccc1)C(=O)O)[C@@H](C)CC [Nle1-AngIV, reference compound] (H-[Nle]YIHPF-OH; N-terminus and C-terminus assumed)
Number of spines/50 μm (PSD-95 staining experiment) [1]: 36 spines/50 μm
Number of spines/50 μm (Synapsin staining experiment) [1]: 31 spines/50 μm
Number of spines/50 μm (VGLUT1 staining experiment) [1]: 39 spines/50 μm
spines per 50 μm dendrite length, CA1 neurons [2]: 11 spines per 50 μm dendrite length
mean frequency of AMPA-mediated mEPSCs ([3]; 10-12 M, vehicle 3.06±0.23 Hz): 5.27±0.43 Hz

HGF: recombinant hepatocyte growth factor (R&D Systems), ligand of c-Met
correlation between presynaptic marker Synapsin and postsynaptic spines ([1]; HGF 10 ng/ml, vehicle 94%): 98%
mean spine numbers per 50 μm dendrite length, CA1 neurons [2]: 18.5
mean mEPSC frequency [3, 4]: 7.09±0.53
mean mEPSC frequency [3, 5]: 9.66±0.20

CCCCCC(=O)N[C@@H](Cc1ccc(O)cc1)C(=O)N[C@H](C(=O)NCCCCCC(N)=O)[C@@H](C)CC [Dihexa, N-hexanoic-Tyr-Ile-(6)-aminohexanoic amide] (Hexanoyl-Tyr-Ile-[Ahx]-NH2)
Number of spines/50 μm (PSD-95 staining experiment) [1]: 43 spines/50 μm
Number of spines/50 μm (Synapsin staining experiment) [1]: 37 spines/50 μm
Number of spines/50 μm (VGLUT1 staining experiment) [1]: 44 spines/50 μm
spines per 50 μm dendrite length, CA1 neurons [2]: 11 spines per 50 μm dendrite length
mean spine numbers per 50 μm dendrite length, CA1 neurons [2]: 15.0
mean mEPSC frequency [3, 4]: 6.75±0.99
mean mEPSC frequency [3, 5]: 8.25±0.56
